Results reported in paper PMC4891693, “Discovery of prenylated flavonoids with dual activity against influenza virus and Streptococcus pneumoniae” (Scientific Reports, 2016).
Converted amounts (≈) assume the structure as drawn. “And” between values parts separate entries of the source, which are not always exact repeats. Equal values may be shown once. “Also recorded” adds a separate entry of the source. Read-outs that look alike come from different tables or passages of the source.

Key:
[1] = in vitro; settings: dog
[2] = tested on: IAV Jena/8178/2009 (8178/09); test: microbe, parasite or virus in culture; type: cell-based, Influenza A virus; settings: 48 h, read-out: IC50 of CPE IAV 8178/09
[3] = in vitro; settings: human
[4] = tested on: human erythrocytes
[5] = tested on: influenza virus A/WSN/33; test: microbe, parasite or virus in culture; type: cell-based; settings: read-out: IC50 of CPE assay (A/WSN/33)
[6] = tested on: NA of S. pneumoniae DSM20566 (precipitated bacterial proteins); test: Hemagglutination (HA)-based NA inhibition assay, bacterial; type: biochemical, Streptococcus pneumoniae; settings: pure compounds; total protein of DSM20566; human erythrocytes; highest tested 100 μM
Text: Inhibition of pneumococcal NAs circumvents hemagglutination.

[7] = target: influenza virus A/WSN/33 NA (Influenza A virus, UniProt P03470); test: biochemical
[8] = tested on: human erythrocytes; test: Interference with hemagglutination in the viral HA assay
[9] = tested on: human erythrocytes; remark: listed apart in the source
[10] = tested on: Madin-Darby canine kidney (MDCK) cells
[11] = tested on: human lung carcinoma cells (A549)
[12] = Cytotoxicity in MDCK cells; settings: dog
[13] = Cytotoxicity in A549 cells; settings: human
[14] = tested on: S. pneumoniae DSM20566 biofilm; test: Scanning electron microscopy of pneumococcal biofilm on glass slides; type: cell-based, Streptococcus pneumoniae; settings: 10 μM, 7 days
[15] = tested on: IAV 8178/09 in A549 cells; type: cell-based, Influenza A virus; settings: 50 µM
[16] = tested on: Madin-Darby canine kidney (MDCK) cells; test: Cytotoxicity in MDCK cells; settings: read-out: CC50 in MDCK cells; pure compounds; 72 h; highest tested 100 μM
[17] = tested on: human lung carcinoma cells (A549); test: Cytotoxicity in A549 cells; settings: read-out: CC50 in A549 cells; pure compounds; 72 h; highest tested 100 μM
[18] = pure compounds, human erythrocytes, 2 h at 4 °C
[19] = treatment from 3 h after inoculation

Sequence of influenza virus A/WSN/33 NA (P03470 whole entry, looked up): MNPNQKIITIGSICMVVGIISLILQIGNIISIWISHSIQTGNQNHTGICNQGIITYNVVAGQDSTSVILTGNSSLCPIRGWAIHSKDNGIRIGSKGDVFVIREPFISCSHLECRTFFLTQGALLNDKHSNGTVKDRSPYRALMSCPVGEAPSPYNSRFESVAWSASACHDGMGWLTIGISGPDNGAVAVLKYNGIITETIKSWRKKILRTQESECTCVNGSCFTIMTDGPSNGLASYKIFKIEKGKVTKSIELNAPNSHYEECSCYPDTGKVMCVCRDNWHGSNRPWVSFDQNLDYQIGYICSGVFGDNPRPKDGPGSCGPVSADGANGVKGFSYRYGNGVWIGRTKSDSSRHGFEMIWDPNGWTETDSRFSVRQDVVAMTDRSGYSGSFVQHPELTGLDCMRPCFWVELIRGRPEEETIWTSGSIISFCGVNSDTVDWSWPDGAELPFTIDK

O=c1c(O)c(-c2ccc(O)cc2O)oc2cc(O)cc(O)c12 [Compound 16, morin]
CC50 at 72 h [1]: > 100 µM
IC50 ([2]; Influenza A virus, MDCK): 70.1 ± 9.83 µM
CC50 at 72 h [3]: > 100 µM
sample concentrations provoking induction of erythrocyte lysis in viral HA assay [4]: no
IC50 ([5]; WSN, MDCK): > 100 µM
MIC in HA assay against S. pneumoniae DSM20566 [6]: 23.0 ± 11.8 µM (≈ 6.95 µg/mL)
IC50 [7]: 62 ± 8.03 µM
sample concentrations provoking prevention of virus-induced hemagglutination in viral HA assay [8]: no
sample concentrations provoking induction of erythrocyte lysis in bacterial HA assay [9]: no

COc1c(O)cc2c(c1O)C(=O)CC(c1ccccc1)O2 (stereo not drawn) [Compound 8, 2,3-dihydro-5,7-dihydroxy-6-methoxy-2-phenyl-4H-1-benzopyran-4-one]
CC50 at 72 h [1]: > 100 µM
IC50 ([2]; Influenza A virus, MDCK): > 100 µM
CC50 at 72 h [3]: > 100 µM
sample concentrations provoking induction of erythrocyte lysis in viral HA assay [4]: no
IC50 ([5]; WSN, MDCK): > 100 µM
IC50 [7]: > 100 µM
sample concentrations provoking prevention of virus-induced hemagglutination in viral HA assay [8, 18]: no
sample concentrations provoking induction of erythrocyte lysis in bacterial HA assay [9]: no

sanggenon G [Compound 4]
CC50 [10]: > 100 µM
IC50 [2]: 8.78 ± 0.89 µM
IC50 [5]: 15.2 ± 14 µM
MIC in HA assay against S. pneumoniae DSM20566 [6]: 5.4 µM and 5.44 ± 3.95 µM
IC50 ([7]; read-out: IC50 in FL assay (influenza virus A/WSN/33 NA)): 61.7 ± 17.8 µM
sample concentrations provoking induction of erythrocyte lysis in viral HA assay [8, 18]: 10 to 100 µM
sample concentrations provoking prevention of virus-induced hemagglutination in viral HA assay [8, 18]: 3.1 to 100 µM
sample concentrations provoking induction of erythrocyte lysis in bacterial HA assay [9]: 31.6 to 100 µM
CC50 [11]: 72.9 ± 17.2 µM

CC(C)=CCc1c(O)cc(O)c2c1O[C@@H](c1ccc(O)cc1)[C@H](O)C2=O (relative stereo) [Compound 23, (2R,3R)-rel-4H-2,3-dihydro-3,5,7-trihydroxy-2-(4-hydroxyphenyl)-8-(3-methyl-2-buten-1-yl)-1-benzopyran-4-one]
CC50 at 72 h [1]: 69 ± 3.56 µM
IC50 ([2]; Influenza A virus, MDCK): 24.7 ± 4.55 µM
CC50 at 72 h [3]: > 100 µM
sample concentrations provoking induction of erythrocyte lysis in viral HA assay [4]: no
MIC in HA assay against S. pneumoniae DSM20566 [6]: 31.6 ± 0.00 µM (≈ 11.3 µg/mL)
IC50 [7]: 27 ± 3.24 µM
sample concentrations provoking prevention of virus-induced hemagglutination in viral HA assay [8]: no
sample concentrations provoking induction of erythrocyte lysis in bacterial HA assay [9]: no

COc1cc([C@H]2Oc3cc([C@H]4Oc5cc(O)cc(O)c5C(=O)[C@@H]4O)ccc3O[C@@H]2CO)ccc1O (racemic) [Compound 17, (±)-silybin]
CC50 at 72 h [1]: > 100 µM
IC50 ([2]; Influenza A virus, MDCK): > 100 µM
CC50 at 72 h [3]: > 100 µM
sample concentrations provoking induction of erythrocyte lysis in viral HA assay [4]: no
IC50 ([5]; WSN, MDCK): > 100 µM
IC50 [7]: 9.18 ± 1.5 µM
sample concentrations provoking prevention of virus-induced hemagglutination in viral HA assay [8, 18]: no
sample concentrations provoking induction of erythrocyte lysis in bacterial HA assay [9]: no

O=c1cc(-c2ccc(O)c(O)c2O)oc2cc(O)cc(O)c12 [Compound 14, 2',3',4',5,7-pentahydroxyflavone]
CC50 at 72 h [1]: > 100 µM
IC50 ([2]; Influenza A virus, MDCK): > 100 µM
CC50 at 72 h [3]: > 100 µM
sample concentrations provoking induction of erythrocyte lysis in viral HA assay [4]: no
IC50 ([5]; WSN, MDCK): > 100 µM
MIC in HA assay against S. pneumoniae DSM20566 [6]: 72.6 ± 37.5 µM (≈ 21.9 µg/mL)
IC50 [7]: > 100 µM
sample concentrations provoking prevention of virus-induced hemagglutination in viral HA assay [8]: no
sample concentrations provoking induction of erythrocyte lysis in bacterial HA assay [9]: no

O=c1cc(-c2ccc(O)c(O)c2)oc2cc(O)cc(O)c12 [Compound 15, luteolin]
CC50 at 72 h [12]: 23 ± 0.18 µM
MIC in HA assay against S. pneumoniae DSM20566 [6]: 23.0 ± 11.8 µM (≈ 6.58 µg/mL)
CC50 at 72 h [13]: > 100 µM
IC50 [7]: > 100 µM
sample concentrations provoking prevention of virus-induced hemagglutination in viral HA assay [8]: no

CCC(CC)O[C@@H]1C=C(C(=O)O)C[C@H](N)[C@H]1NC(C)=O [Oseltamivir carboxylate GS4071, reference compound]
biofilm formation by scanning electron microscopy [14, 19]: did not impair biofilm formation
MIC in HA assay against S. pneumoniae DSM20566 [6]: 2.08 ± 1.25 µM (≈ 0.591 µg/mL)

CC(C)=CCC/C(C)=C/Cc1c(O)ccc([C@@H]2CC(=O)c3c(O)cc(O)cc3O2)c1O [Compound 5, sanggenol A]
CC50 at 72 h [1]: 42.1 ± 4.45 µM
CC50 at 72 h [3]: > 100 µM
sample concentrations provoking induction of erythrocyte lysis in viral HA assay ([4]; human): 100 or no
viral yield in A549 cells in the presence of NanA of DSM20566 [15]: 31.8 ± 4.5%
virus yield in A549 cells in the absence of NanA [15]: 5.1 ± 1.8%
IC50 ([5]; WSN, MDCK): 35.4 ± 14.6 µM
MIC in HA assay against S. pneumoniae DSM20566 [6]: 31.6 µM and 31.6 ± 0.00 µM
IC50 [7]: 65.5 ± 9.29 µM
sample concentrations provoking prevention of virus-induced hemagglutination in viral HA assay [8]: 100 or no
sample concentrations provoking induction of erythrocyte lysis in bacterial HA assay ([9]; human): 100 µM

COc1ccc(C2CC(=O)c3c(O)cc(O)cc3O2)cc1O (racemic) [Compound 10, (±)-hesperetin]
CC50 [1]: > 100 µM
IC50 ([2]; Influenza A virus, MDCK): > 100 µM
CC50 [3]: > 100 µM
sample concentrations provoking induction of erythrocyte lysis in viral HA assay [4]: no
IC50 ([5]; WSN, MDCK): > 100 µM
IC50 [7]: > 100 µM
sample concentrations provoking prevention of virus-induced hemagglutination in viral HA assay [8]: no
sample concentrations provoking induction of erythrocyte lysis in bacterial HA assay [9]: no

CC(C)=CC[C@]12Oc3cc(O)c([C@H]4C=C(C)C[C@H](c5ccc(O)cc5O)[C@H]4C(=O)c4ccc(O)cc4O)c(O)c3C(=O)[C@@]1(O)Oc1cc(O)ccc12 [Compound 2, sanggenon C]
CC50 [1]: 51.7 ± 12.2 µM
IC50 ([2]; Influenza A virus, MDCK): 8.3 ± 0.7 µM
CC50 [3]: 32.6 ± 9.07 µM
sample concentrations provoking induction of erythrocyte lysis in viral HA assay ([4]; human): 10 to 100 µM
IC50 [7]: 9.18 ± 1.5 µM
sample concentrations provoking prevention of virus-induced hemagglutination in viral HA assay [8]: 3.1 to 100 µM
sample concentrations provoking induction of erythrocyte lysis in bacterial HA assay ([9]; human): 31.6 to 100 µM

O=C1CC(c2ccc(O)cc2O)Oc2cc(O)cc(O)c21 (stereo not drawn) [Compound 12, 2',4',5,7-tetrahydroxyflavanone]
CC50 at 72 h [1]: > 100 µM
IC50 ([2]; Influenza A virus, MDCK): > 100 µM
CC50 at 72 h [3]: > 100 µM
sample concentrations provoking induction of erythrocyte lysis in viral HA assay [4]: no
IC50 ([5]; WSN, MDCK): 81.3 ± 10.4 µM
MIC in HA assay against S. pneumoniae DSM20566 [6]: 72.6 ± 37.5 µM (≈ 20.9 µg/mL)
IC50 [7]: 77.7 ± 5.56 µM
sample concentrations provoking prevention of virus-induced hemagglutination in viral HA assay [8]: no
sample concentrations provoking induction of erythrocyte lysis in bacterial HA assay [9]: no

COc1c(CC=C(C)C)cc([C@@H]2CC(=O)c3c(O)cc(O)cc3O2)cc1CC=C(C)C [Compound 27, abyssinone-V 4'-methyl ether]
CC50 at 72 h [1]: 2.29 ± 0.1 µM
CC50 at 72 h [3]: > 100 µM
sample concentrations provoking induction of erythrocyte lysis in viral HA assay [4]: no
biofilm formation by scanning electron microscopy [14, 19]: completely prevented biofilm formation; also recorded: strong effect
biofilm formation by scanning electron microscopy ([14]; treatment from 6 h after inoculation): no biofilm was formed
biofilm formation by scanning electron microscopy ([14]; treatment from 9 h after inoculation): affected biofilm formation weakly
biofilm formation by scanning electron microscopy ([14]; treatment from 48 h after inoculation): had no effect
viral yield in A549 cells in the presence of NanA of DSM20566 [15]: 7.4 ± 1.2%
virus yield in A549 cells in the absence of NanA [15]: 3.2 ± 1.4%
MIC in HA assay against S. pneumoniae DSM20566 [6]: 7.72 ± 3.53 µM (≈ 3.26 µg/mL)
IC50 [7]: 33.1 ± 11.7 µM
sample concentrations provoking prevention of virus-induced hemagglutination in viral HA assay [8]: 3.16 to 100 µM
sample concentrations provoking induction of erythrocyte lysis in bacterial HA assay ([9]; human): 31.6 to 100 µM

O=C1CC(c2ccc(O)c(O)c2)Oc2cc(O)cc(O)c21 (racemic) [Compound 11, (±)-eriodictyol]
IC50 ([2]; Influenza A virus, MDCK): 78.3 ± 5.72 µM
CC50 at 72 h [12]: > 100 µM
sample concentrations provoking induction of erythrocyte lysis in viral HA assay [4]: no
IC50 ([5]; WSN, MDCK): 68.4 ± 12.9 µM
MIC in HA assay against S. pneumoniae DSM20566 [6]: 45.3 ± 30.6 µM (≈ 13.1 µg/mL)
CC50 at 72 h [13]: > 100 µM
IC50 [7]: > 100 µM
sample concentrations provoking prevention of virus-induced hemagglutination in viral HA assay [8]: no
sample concentrations provoking induction of erythrocyte lysis in bacterial HA assay [9]: no

sanggenon D [Compound 3]
CC50 [16]: 99 ± 8.7 µM
MIC in HA assay against S. pneumoniae DSM20566 [6]: 31.6 µM and 31.6 ± 0.00 µM
CC50 [17]: 79.9 ± 11.2 µM
sample concentrations provoking induction of erythrocyte lysis in viral HA assay [8, 18]: 31.6 to 100 µM
sample concentrations provoking prevention of virus-induced hemagglutination in viral HA assay [8, 18]: no
sample concentrations provoking induction of erythrocyte lysis in bacterial HA assay [9]: 100 µM

CC(C)=CCc1cc(C2CC(=O)c3ccc(O)cc3O2)ccc1O (racemic) [Compound 18, (±)-abyssinone II]
CC50 at 72 h [1]: 59.2 ± 15 µM
IC50 ([2]; Influenza A virus, MDCK): 25.9 ± 3.67 µM
CC50 at 72 h [3]: > 100 µM
sample concentrations provoking induction of erythrocyte lysis in viral HA assay [4]: no
IC50 ([5]; WSN, MDCK): 11.4 ± 3 µM
IC50 [7]: > 100 µM
sample concentrations provoking prevention of virus-induced hemagglutination in viral HA assay [8]: no
sample concentrations provoking induction of erythrocyte lysis in bacterial HA assay [9]: no

CC1=C[C@H](c2c(O)ccc([C@@H]3CC(=O)c4c(O)cc(O)cc4O3)c2O)[C@@H](C(=O)c2ccc(O)cc2O)[C@H](c2ccc(O)cc2O)C1 [Compound 6, kuwanon L]
CC50 [1]: > 100 µM
CC50 [3]: 94.4 ± 4.73 µM
sample concentrations provoking induction of erythrocyte lysis in viral HA assay ([4]; human): 100 µM
MIC in HA assay against S. pneumoniae DSM20566 [6]: 31.6 µM and 31.6 ± 0.00 µM
IC50 [7]: 37.2 ± 10.6 µM
sample concentrations provoking prevention of virus-induced hemagglutination in viral HA assay [8]: 31.6 µM
sample concentrations provoking induction of erythrocyte lysis in bacterial HA assay ([9]; human): 100 µM
